Results reported in ChEMBL document CHEMBL1130864, “Potent and efficacious thienylamidine-incorporated thrombin inhibitors” (Bioorg Med Chem Lett, 1998).

Tests used:
Prothrombin = Prothrombin (Homo sapiens, UniProt P00734); test: Compound was evaluated for its inhibitory activity against human thrombin
Serine protease 1 = target: T1, Serine protease 1 (Bos taurus, UniProt P00760); test: Compound was evaluated for its inhibitory activity against bovine trypsin
T1 sequence (P00760 whole entry): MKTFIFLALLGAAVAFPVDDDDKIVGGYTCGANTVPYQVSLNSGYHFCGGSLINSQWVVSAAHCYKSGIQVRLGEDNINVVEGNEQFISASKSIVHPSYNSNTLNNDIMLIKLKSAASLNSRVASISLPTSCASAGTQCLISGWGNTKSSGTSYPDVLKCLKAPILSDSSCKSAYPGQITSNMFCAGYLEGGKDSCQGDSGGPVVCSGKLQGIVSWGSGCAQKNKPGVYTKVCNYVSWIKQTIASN

SMILES | Ki (Prothrombin) [nM] | Ki (Serine protease 1) [nM]
COc1ccc2cc(S(=O)(=O)N[C@@H](Cc3ccc(C(=N)N)s3)C(=O)N(C)C3CCCC3)ccc2c1 | 0.49 | 134
CN(C(=O)[C@H](Cc1ccc(C(=N)N)s1)NS(=O)(=O)c1ccc2ccccc2c1)C1CCCC1 | 3 | 153
CN(C(=O)[C@H](Cc1ccc(C(=N)NN)s1)NS(=O)(=O)c1ccc2ccccc2c1)C1CCCC1 | 91 | –

More lines, now with the values ahead:

Ki (Prothrombin) [nM] | Ki (Serine protease 1) [nM] | SMILES
0.84 | 2440 | CCCc1ccc(S(=O)(=O)N[C@@H](Cc2ccc(C(=N)N)cc2)C(=O)N(C)C2CCCC2)cc1
0.6 | 150 | CCCc1ccc(S(=O)(=O)N[C@@H](Cc2ccc(C(=N)N)s2)C(=O)N(C)C2CCCC2)cc1
6.8 | 16200 | CN(C(=O)[C@H](Cc1ccc(C(=N)N)cc1)NS(=O)(=O)c1ccc2ccccc2c1)C1CCCC1
